Source: patent US8557998B2, “Benzylpiperizine compound” (Dainippon Sumitomo Pharma Co., Ltd, priority 2008, dated 2013)

Assays:
[1] = target: T1, CYP2D6 (Homo sapiens, UniProt P10635); test: CYP2D6 inhibition screening test; type: in vitro ADME; conditions: pooled human liver microsomes, substrate bufuralol, 37° C. 10 min, 1'-hydroxybufuralol by LC-MSMS; read-out: Test Example 3: CYP2D6 Inhibition IC50
T1 construct: Pooled of Human Liver Microsomes was purchased from Xenotech, LLC; tissue Xenotech, LLC; host or cells: pooled human liver microsomes
Procedure: CYP2D6 Inhibition Screening Test
Bufuralol was purchased from Sigma-Aldrich Corp., and Pooled of Human Liver Microsomes was purchased from Xenotech, LLC.
150 μL of Pooled Human Liver Microsomes (20 mg/ml), 12 mL of a 0.5 M potassium phosphate buffer, 1.2 mL of a 165 mM magnesium chloride solution, and 34.65 mL of distilled water were mixed.
Bufuralol was dissolved at a concentration of 2.0 mM in DMSO and then diluted 200-fold with distilled water.
3-3 Experimental Procedures
1. A 10 mM DMSO solution of a test drug was serially diluted 5-fold with DMSO for 4 serial dilutions to prepare 10, 2, 0.4, and 0.08 mM DMSO solutions.
2. Each test drug solution of the step 1. and DMSO were separately diluted 96-fold with a human liver microsome solution, and each dilution was dispensed and 80 μL of each dilution to microplates.
3. 10 μL of a substrate solution and 10 μL of a β-NADPH solution were added to the well of the step 2., followed by incubation at 37° C. for 10 min.
4. The reaction was terminated by the addition of 300 μL of methanol.
5. The reaction mixture was filtered, and LC-MSMS analysis was conducted.
3-4 Quantification and Calculation
The amount of 1′-hydroxybufuralol produced was quantified by LC-MSMS, and this amount was used as a metabolic activity of CYP2D6 for each well. The remaining activity of each sample was determined by comparison with the activity obtained from DMSO as a test drug. An IC50 value of CYP2D6 inhibition was determined from the test drug concentration and remaining activity. The IC50 value was calculated by linear interpolation between two points that span the remaining activity 50%. A larger value of IC50 of CYP2D6 inhibition means weaker CYP2D6 inhibition.

[2] = target: T2, human serotonin transporter (h-SERT) (Homo sapiens, UniProt P31645); test: Screening test using [3H]citalopram binding for evaluating human serotonin reuptake inhibitory effect; conditions: h-SERT/CHO membrane preparation, [3H]citalopram approximately 2 nM, room temperature 60 minutes; read-out: Test Example 1: h-SERT binding inhibition constant (Ki)
T2 construct: expressed in transfected cells; host or cells: CHO cells (h-SERT/CHO), Geneticin-selected
Source text: CHO cells containing a human serotonin transporter (h-SERT) expressed therein (h-SERT/CHO) were used in the experiment.
1-2 Receptor Binding Experiment
A smaller value of the h-SERT binding inhibition constant Ki means a higher human serotonin reuptake inhibitory effect.

[3] = target: T1, CYP2D6; test: Screening test of the rate of CYP2D6 contribution in human liver microsomal metabolism; type: in vitro ADME; set-up: key to Rate of CYP2D6 Contribution indeterminable due to high stability for human microsomal metabolism: —*^): The rate of CYP2D6 contribution was indeterminable in the present test due to high stability for human microsomal metabolism; conditions: 1 mg/mL human liver microsomes, 1 μM test substance, 37° C.; for Test Example 4: Rate of CYP2D6 Contribution: with/without quinidine 4 μM
Procedure: Screening Test of the Rate of CYP2D6 Contribution in Human Liver Microsomal Metabolism
0.2 mL of a 50 mM potassium phosphate buffer solution (pH 7.4) containing NADPH (final concentration: 3 mM, manufactured by Oriental Yeast Co., Ltd.), 1 mg/mL human liver microsomes (manufactured by XENOTECH, LLC), and a 1 μM test substance was heated on a water bath at 37° C. for metabolic reaction. After the reaction for 15 minutes or 30 minutes, methanol was added in a volume 3 times that of the reaction solution, and the mixture was stirred to terminate the reaction. This reaction solution was centrifuged for protein precipitation. Then, the supernatant was collected and subjected to LC-MS/MS analysis. The results were analyzed as follows:
The test substance was quantified, and time-dependent change in the amount of the substance remaining was logarithmically plotted. A metabolic rate was calculated from the slope.
The ratio of the metabolic rate obtained by the addition of quinidine (final concentration: 4 μM) to the reaction solution to the metabolic rate obtained without the addition was used as the rate of contribution of enzymes other than CYP2D6, and the rate of contribution obtained by subtracting this rate of contribution of other enzymes from the total was used as the rate of CYP2D6 contribution. Specifically, it was calculated according to the equation: Rate of contribution(%)={1−(metabolic rate [with quinidine]/metabolic rate[without quinidine])}×100. A smaller value of the rate of CYP2D6 contribution means smaller CYP2D6 contribution.

[4] = target: T3, human serotonin 1A receptor (h-5-HT1A) (Homo sapiens, UniProt P08908)
T3 sequence (P08908 1-422): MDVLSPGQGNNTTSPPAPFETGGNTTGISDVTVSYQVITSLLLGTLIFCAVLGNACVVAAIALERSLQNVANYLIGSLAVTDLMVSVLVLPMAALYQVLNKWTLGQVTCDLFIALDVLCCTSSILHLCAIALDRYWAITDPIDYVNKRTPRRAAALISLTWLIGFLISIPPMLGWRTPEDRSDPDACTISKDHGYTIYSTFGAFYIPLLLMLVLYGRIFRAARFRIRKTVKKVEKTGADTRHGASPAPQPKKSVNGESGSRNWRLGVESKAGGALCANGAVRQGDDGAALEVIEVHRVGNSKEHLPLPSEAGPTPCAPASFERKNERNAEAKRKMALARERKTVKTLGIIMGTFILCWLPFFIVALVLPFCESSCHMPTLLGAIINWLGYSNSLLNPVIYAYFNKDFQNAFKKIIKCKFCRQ
Procedure: The cells were cultured in F12 containing 10% FCS, 500 μg/ml Geneticin, and 100 U/ml penicillin-100 μg/ml streptomycin (all manufactured by Sigma-Aldrich Corp.) in a 5% CO2 incubator. […] Specifically, the cells were dissociated/collected using 50 mM Tris-HCl (pH=7.4). The resulting cells were homogenized using a Teflon (registered trademark) homogenizer and then centrifuged (48,000×g, 20 min, 4° C.). The pellet was resuspended in an appropriate amount of 50 mM Tris-HCl (pH=7.4) and stored at −80° C. until use. The amount of the protein in the membrane preparation was quantified using Dye Reagent Concentrate (manufactured by Bio-Rad Laboratories, Inc.) with bovine serum albumin (manufactured by Sigma-Aldrich Corp.) as a standard.
The reaction solution was reacted at room temperature for 30 minutes and then rapidly filtered by suction at a low pressure through glass fiber filter paper. The glass fiber filter paper was washed twice with 250 μl of 50 mM Tris-HCl (pH=7.4) and then added to a counting vial containing 4 ml of ACS-II (manufactured by Amersham Biosciences). Receptor binding radioactivity remaining on the filter paper was measured using a liquid scintillation counter.

[5] = target: T2, human serotonin transporter (h-SERT); test: Serotonin transporter function inhibition test using [3H]5-HT; type: cell-based; conditions: h-SERT/CHO cells, [3H]5-HT uptake approximately 10 nM, 37° C. 10 minutes; read-out: Test Example 5: h-SERT Function Inhibition Constant (Ki)
Procedure: 1-1 Cells Used and Preparation of Cell Suspension
CHO cells containing a human serotonin transporter (h-SERT) expressed therein (h-SERT/CHO) were used in the experiment. […] The collected cells were suspended in a buffer solution containing 0.1 mM CaCl2 and 1 mM MgCl2 in PBS (hereinafter, referred to as PBSCM) and stored in ice until use.
Specifically, 149 μl of the cell suspension (10×10^4 cells/well) and 1 μl of a solution of a test drug dissolved in dimethyl sulfoxide were preincubated at 37° C. for 10 minutes.

T2 sequence (P31645 whole entry): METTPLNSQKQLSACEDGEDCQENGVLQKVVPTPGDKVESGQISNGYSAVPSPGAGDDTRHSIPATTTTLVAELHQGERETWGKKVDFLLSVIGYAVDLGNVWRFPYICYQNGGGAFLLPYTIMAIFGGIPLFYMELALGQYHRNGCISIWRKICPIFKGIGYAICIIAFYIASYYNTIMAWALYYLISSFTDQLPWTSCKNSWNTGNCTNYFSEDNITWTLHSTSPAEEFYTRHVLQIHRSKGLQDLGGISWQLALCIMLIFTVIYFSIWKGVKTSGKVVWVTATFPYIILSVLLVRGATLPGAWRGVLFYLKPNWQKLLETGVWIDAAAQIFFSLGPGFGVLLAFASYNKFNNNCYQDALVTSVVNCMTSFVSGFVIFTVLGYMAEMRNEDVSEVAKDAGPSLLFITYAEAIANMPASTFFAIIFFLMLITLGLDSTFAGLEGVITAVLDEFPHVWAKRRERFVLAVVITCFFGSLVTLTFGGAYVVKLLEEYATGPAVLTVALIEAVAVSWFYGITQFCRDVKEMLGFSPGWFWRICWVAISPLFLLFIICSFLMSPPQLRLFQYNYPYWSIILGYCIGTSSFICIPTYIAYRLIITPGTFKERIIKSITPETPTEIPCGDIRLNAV
T1 sequence (P10635 whole entry): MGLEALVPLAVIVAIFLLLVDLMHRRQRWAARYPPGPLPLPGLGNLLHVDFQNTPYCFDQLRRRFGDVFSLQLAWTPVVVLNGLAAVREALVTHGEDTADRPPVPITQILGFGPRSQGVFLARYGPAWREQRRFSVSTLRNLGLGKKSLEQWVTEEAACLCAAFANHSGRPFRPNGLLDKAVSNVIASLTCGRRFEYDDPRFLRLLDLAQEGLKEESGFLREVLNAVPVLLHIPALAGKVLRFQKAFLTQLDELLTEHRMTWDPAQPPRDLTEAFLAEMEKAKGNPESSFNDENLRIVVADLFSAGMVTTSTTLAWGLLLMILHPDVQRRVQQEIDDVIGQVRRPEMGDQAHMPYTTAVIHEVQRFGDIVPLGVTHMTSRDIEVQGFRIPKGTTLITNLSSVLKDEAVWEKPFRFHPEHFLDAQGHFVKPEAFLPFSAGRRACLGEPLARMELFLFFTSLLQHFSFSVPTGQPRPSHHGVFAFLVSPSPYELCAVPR

IC50 [1] [µM] | Ki [2] [µM] | Test Example 4: Rate of CYP2D6 Contribution [3] [%] | Ki [4] [µM] | Ki [5] [µM] | Rate of CYP2D6 Contribution indeterminable due to high stability for human microsomal metabolism [3] | SMILES
27.9 | 0.00087 | 36 | 0.0045 | 0.0089 | – | COCCOc1cc(CC2CCN(CCc3ccc4c(c3)C(=O)CC4)CC2)ccc1Br [Example 1]
22.9 | – | 0 | – | – | – | COCCOc1cc(CC2CCN(CCc3ccc4c(c3)C(=O)CCO4)CC2)ccc1Br.Cl [Example 4, 6-(2-{4-[4-Bromo-3-(2-methoxyethoxy)benzyl]piperidin-1-yl}ethyl)-2,3-dihydro-4H-chromen-4-one hydrochloride]
24.7 | 0.0012 | 4.2 | – | 0.0016 | – | COCCOc1cc(CC2CCN(CCc3ccc4c(c3)C(=O)CCCO4)CC2)ccc1Br [Example 6, 7-(2-{4-[4-Bromo-3-(2-methoxyethoxy)benzyl]piperidin-1-yl}ethyl)-3,4-dihydro-1-benzoxepin-5(2H)-one]
17.5 | 0.0027 | 54 | – | 0.016 | – | COCCOc1cc(CC2CCN(CCc3ccc4c(c3)C(=O)CCO4)CC2)ccc1Cl [Example 7, 6-(2-{4-[4-Chloro-3-(2-methoxyethoxy)benzyl]piperidin-1-yl}ethyl)-2,3-dihydro-4H-chromen-4-one]
31 | 0.0028 | 9.6 | 0.0037 | – | – | COCCOc1cc(CC2CCN(CCc3ccc4c(c3)C(=O)CC4)CC2)ccc1C [Example 8, 6-(2-{4-[3-(2-Methoxyethoxy)-4-methylbenzyl]piperidin-1-yl}ethyl)-2,3-dihydro-1H-inden-1-one]
33.7 | 0.0031 | 7.8 | 0.013 | – | – | COCCOc1cc(CC2CCN(CCc3ccc4c(c3)C(=O)CCC4)CC2)ccc1C [Example 9, 7-(2-{4-[3-(2-Methoxyethoxy)-4-methylbenzyl]piperidin-1-yl}ethyl)-3,4-dihydronaphthalen-1(2H)-one]
21.5 | 0.0042 | 49 | – | 0.044 | – | COCCOc1cc(CC2CCN(CCc3ccc4c(c3)C(=O)CCO4)CC2)ccc1C [Example 10]
24.6 | 0.0064 | – | 0.0038 | – | —*^) | O=C1CCc2ccc(CCN3CCC(Cc4ccc(Br)c(OCCO)c4)CC3)cc21 [Example 11, 6-(2-{4-[4-Bromo-3-(2-hydroxyethoxy)benzyl]piperidin-1-yl}ethyl)-2,3-dihydro-1H-inden-1-one]
27.9 | 0.0092 | 17 | 0.023 | – | – | O=C1CCCc2ccc(CCN3CCC(Cc4ccc(Br)c(OCCO)c4)CC3)cc21 [Example 12, 7-(2-{4-[4-Bromo-3-(2-hydroxyethoxy)benzyl]piperidin-1-yl}ethyl)-3,4-dihydronaphthalen-1(2H)-one]
34.8 | 0.0085 | – | 0.055 | – | —*^) | O=C1CCCOc2ccc(CCN3CCC(Cc4ccc(Br)c(OCCO)c4)CC3)cc21 [Example 14, 7-(2-{4-[4-Bromo-3-(2-hydroxyethoxy)benzyl]piperidin-1-yl}ethyl)-3,4-dihydro-1-benzoxepin-5(2H)-one]
36.1 | 0.0032 | 11 | 0.035 | – | – | COCCOc1cc(Br)cc(CC2CCN(CCc3ccc4c(c3)C(=O)CC4)CC2)c1 [Example 15, 6-(2-{4-[3-Bromo-5-(2-methoxyethoxy)benzyl]piperidin-1-yl}ethyl)-2,3-dihydro-1H-inden-1-one]
26.3 | 0.0029 | 9.2 | 0.027 | – | – | COCCOc1cc(Br)cc(CC2CCN(CCc3ccc4c(c3)C(=O)CCC4)CC2)c1 [Example 16, 7-(2-{4-[3-Bromo-5-(2-methoxyethoxy)benzyl]piperidin-1-yl}ethyl)-3,4-dihydronaphthalen-1(2H)-one]
24.6 | 0.004 | 14 | – | 0.018 | – | COCCOc1cc(Br)cc(CC2CCN(CCc3ccc4c(c3)C(=O)CCO4)CC2)c1 [Example 17]
27.5 | 0.0062 | 0 | 0.295 | – | – | COCCOc1cc(Br)cc(CC2CCN(CCc3ccc4c(c3)C(=O)CCCO4)CC2)c1 [Example 18, 7-(2-{4-[3-Bromo-5-(2-methoxyethoxy)benzyl]piperidin-1-yl}ethyl)-3,4-dihydro-1-benzoxepin-5(2H)-one]
20.4 | 0.003 | 16 | 0.029 | – | – | COCCOc1cc(Cl)cc(CC2CCN(CCc3ccc4c(c3)C(=O)CC4)CC2)c1 [Example 19, 6-(2-{4-[3-Chloro-5-(2-methoxyethoxy)benzyl]piperidin-1-yl}ethyl)-2,3-dihydro-1H-inden-1-one]
23.4 | 0.0024 | 24 | 0.057 | – | – | COCCOc1cc(Cl)cc(CC2CCN(CCc3ccc4c(c3)C(=O)CCO4)CC2)c1 [Example 20, 6-(2-{4-[3-Chloro-5-(2-methoxyethoxy)benzyl]piperidin-1-yl}ethyl)-2,3-dihydro-4H-chromen-4-one]

SMILES | IC50 [1] [µM] | Ki [2] [µM] | Test Example 4: Rate of CYP2D6 Contribution [3] [%] | Ki [4] [µM] | Ki [5] [µM] | Rate of CYP2D6 Contribution indeterminable due to high stability for human microsomal metabolism [3]
COCCOc1cc(CC2CCN(CCc3ccc4c(c3)C(=O)CCC4)CC2)ccc1Br [Example 2, 7-(2-{4-[4-Bromo-3-(2-methoxyethoxy)benzyl]piperidin-1-yl}ethyl)-3,4-dihydronaphthalen-1(2H)-one] | 12.8 | 0.0007 | 12 | – | 0.0016 | –
